What was measured:
[1] = test system: adhesion of PMN leukocytes to BAEC monolayer stimulated with TNF-α (selectin-mediated); experiment: Static adhesion assay (leukocyte adhesion to endothelial monolayer); assay type: cell-based, bovine; settings: for potency in the static adhesion assay, bimosiamose compared with T3: bimosiamose at 600 μM versus T3 at 100 μM
Experimental: The reduction of adhesion of adhering leukocytes to the monolayer stimulated with TNF-α was set to 0%, the one in the untreated control-wells was set to 100%.
Following seeding in 24 well-plates, the examination of the adhesion was performed using (bovine aorta endothelial cells) BAEC monolayers of the cell passage 1-3 seven days. Before performing the assay, the completeness and the uniformity of the BAEC-monolayer was microscopically ensured. The culture medium (500 ml of medium M199, to which 6 ml of penicillin/streptomycin solution 1%, 6 ml L-glutamine (200 mM) and 100 ml (20%) of fetal calf serum, Sigma, Munich, were added) was removed, and the monolayer was washed twofold with DPBS (1000 μl/well, 37° C.). Subsequent to washing, the cells were treated with the cell culture medium containing 20 ng/ml of recombinant tumor necrosis-factor-alpha (TNFα) (in the presence of the respective test substance, dissolved in dimethylsulfoxide (DMSO) or only with DMSO as vehicle) […] at 37° C. and 5% CO2 for 4 hours. After another twofold washing with DPBS (1000 μl/well, 37° C.) 900 μl of the culture medium and 100 μl of a PMN-suspension (10^6 cells per ml) were added per well, and incubated for 30 minutes at 37° C. and 5% CO2. Non-adherent cells were removed by twofold washing with DPBS (1000 μl/well, 37° C.). […]
The BAEC-sections were analyzed with an inverse Leica DM IRS-microscope (Leica, Bensheim, Germany) at 100-fold magnification. […] For the manual counting of PMNs, several randomly selected sections of 0.25 mm^2 in size from the centre of the respective well of the well-plate were counted. […] In order to do so, each PMN in the area as chosen was counted by a PC-mouse click, and the counted cells were labeled. […]
The analysis of the pictures was performed using the publicly available ImageJ-software (available at http://rsb.info.nih.gov/ij), installed on a standard-PC (Maxdata, Mergel, Germany). All pictures as obtained in a test run were grouped into an series, and then analyzed in an automated method using a specifically programmed macro. […]

selectins = settings: cited from earlier work
MM6-cells = experiment: XTT-viability test; assay type: cell-based; settings: after 1.5 hours, FIG. 3
Experimental: The XTT-assay (Cell Proliferation Kit II (XTT), Roche molekulare Biochemikalien, Mannheim, Germany) was used for the quantification of the anti-proliferative or cytotoxic effects of the substances as synthesized. The assay is based on the conversion of the yellow tetrazolium-salt XTT into an orange formazan-dye by metabolically active cells. The XTT-formazan-dye is soluble in aqueous solutions, and can be directly determined in a quantitative fashion with an ELISA-reader. The incubation time varies depending from the respective experimental setting (e.g. the kind of cell and the cellular concentrations used). Following the addition of the final XTT-reagent, the absorption was determined at 490 nm, at different points in time (e.g. 30 minutes, 4, 6, 8, 12, and 18 hours). All data were analyzed with Microsoft Excel. The IC50 values were calculated with the program GRAFIT, Erithacus Software Ltd., Great Britain.
Using the commercial available XTT-test kit, the cytotoxic behavior of substances with different structural elements against MM6-cells was examined after 1.5 hours. Structural elements that are responsible for the cytotoxicity were identified. The amide-function in combination with free carboxylic acid-functions was identified as particularly cytotoxic.

Compound | potency in the static adhesion assay, bimosiamose compared with T3 [1] | affinity to the selectins compared to sLeX (selectins) | cytotoxic behavior (XTT) (MM6-cells) | effect on the reduction of the adhesion (potency) ([1]; static assay, FIG. 1, leukocytes on TNF-α-stimulated BAEC monolayer, 10^-4-10^-7 mol/l tested)
O=C(O)Cc1cccc(-c2cc(CCCCCCc3ccc(O[C@H]4O[C@H](CO)[C@@H](O)[C@H](O)[C@@H]4O)c(-c4cccc(CC(=O)O)c4)c3)ccc2O[C@H]2O[C@H](CO)[C@@H](O)[C@H](O)[C@@H]2O)c1 [bimosiamose, 1,6-bis[3-(3-carboxymethylphenyl)-4-(2-alpha-D-mannopyranosyloxy)phenyl]hexane] | about the same potency | essentially higher affinity |  | 
CCCCCCCCCCOc1cc(OCCCCCCCCCC)cc(OCCCCCCN(c2ccc(C(=O)O)cc2)c2ccc(C(=O)O)cc2)c1 [T21, 4-(N-(6-(3,5-bis(decyloxy)phenoxy)hexyl)-N-(4-carboxyl-phenyl)amino)benzoic acid] |  |  | completely non-toxic | highly potent
CCCCCCCCCCOc1cc(OCCCCCCCCCC)cc(OCCCCCC(=O)N(c2ccc(C(=O)O)cc2)c2ccc(C(=O)O)cc2)c1 [T3, 6-(3,5-Didecyloxyphenoxy)-hexanoic acid-N,N-bis(4-carboxyphenyl)amide] | about the same potency |  |  | 
CS(=O)(=O)c1ccc(C2=C(c3ccccc3)C(=O)OC2)cc1 [Rofecoxib] |  |  | has cytotoxic effects | 
